{"source": "patent US5415869A", "about": "“Taxol formulation” (The Research Foundation of State University of New York, priority 1993, dated 1995)", "key": {"[1]": {"system": "metastatic breast cancer", "details": "phase II, pretreated patients; cited from earlier work"}, "[2]": {"system": "human tumor lines", "assay": "Cytostatic activity in vitro, human tumor lines", "format": "cell-based", "details": "human tumor lines more sensitive than C-26", "source_text": "(§1) FIG. 7 is a plot of cell lines versus IC50 which compares the growth-inhibitory properties of taxol/liposomes to those of free taxol. Cells were placed at a density of 2×10^4 /ml in multiwell plates and allowed to adhere overnight. Triplicate wells were exposed to various concentration of taxol, either added as liposomes (solid bar), as a 100× concentrated stock in DMSO (stippled bar), or absorbed to serum proteins (hatched bar) in the absence of organic solvent. […] Experiments were repeated at least twice. Cell lines are as follows: Colon-26: murine colon carcinoma; B16: murine melanoma; B16F10: highly-metastatic variant of B16 murine melanoma; L1210: murine leukemia; 9L: rat gliosarcoma; A12la, Hcy-lb, and A90: human ovarian tumor cell lines."}, "[3]": {"system": "Colon-26 (C-26), a murine colon tumor model", "assay": "Antitumor activity in nine doses, s.c. Colon-26", "experimental": "FIGS. 3A-C show plots of mean tumor size versus days after tumor implantation which indicates the antitumor effect of nine doses of free- or liposomal taxol on Colon-26 tumors. Subcutaneous Colon-26 tumors were initiated. When the tumor was measurable (day 8), treatment was initiated. Animals were dosed 3 times weekly, and treatment was given for 3 weeks, as indicated by the filled circle along the abscissa. Untreated controls received injections of saline or Diluent 12 (diluted 1:3) without taxol (panel A). Treatment with liposome-based taxol formulations consisted of 10, 40, or 60 mg/kg doses with taxol, PG, and PC SUV (B). Alternatively, free taxol in Diluent 12 (diluted 1:3 with saline), was administered at doses of 10, 20, or 30 mg/kg (C). […] Each treatment group consisted of ten animals. For humane reasons, animals were sacrificed when tumor volume exceeded 2000 mm^3.\nIn all experiments, the tumor volume of each animal was measured frequently, and the data was subjected to statistical analysis using an BMDP 1L program. The median time required for the tumor to reach 1500 mm^3 was determined for each treatment group (as indicated by the insert).\nThe viability of cells was >80% by trypan blue exclusion.\nSubcutaneous tumors on the left flank were initiated by injection of 10^6 viable cells in a volume of 0.1 ml. Mice were then randomized into various treatment groups and numbered. The dose per mouse was adjusted on the basis of its weight, determined at the time of treatment. Treatment was started 7 or 8 days after tumor implantation, and consisted of i.v. injections through the tail vein. Buffer or Diluent 12 without taxol were used as control treatments. Animal weight and tumor volume was measured five times weekly until the tumor volume reached 2000 mm^3, at which time animals were sacrificed for humane reasons. Tumor volume was determined by measuring three orthogonal diameters of the tumor, and was calculated as 1/2 of the product of the diameters (Begg, A. C., \"Principles and Practices of the Tumor Growth Delay Assay,\" Rodent Tumor (R. F. Kallman (ed.)), pp. 114-121, New York:Pergammon Press, (1987), which is hereby incorporated by reference). The data was analyzed for statistical significance using the BMDP 1L program (BMDP Statistical Software Inc.; Los Angeles, Calif.)."}, "[4]": {"system": "Colon-26 (C-26), a murine colon tumor model", "assay": "Antitumor activity in one dose, s.c. Colon-26", "format": "in vivo, BALB/c mice", "experimental": "Subcutaneous Colon-26 tumors were initiated and checked daily. When the tumor was measurable (day 8), a single intravenous bolus dose of taxol was given, either in Cremophor EL®/ethanol (Diluent 12) or in liposomes (indicated by the filled circle along the abscissa). Untreated controls received injections of equivalent volumes of saline or Diluent 12 (diluted 1:3) without taxol (panel A). […]\n(§3) In all experiments, the tumor volume of each animal was measured frequently, and the data was subjected to statistical analysis using an BMDP 1L program. The median time required for the tumor to reach 1500 mm^3 was determined for each treatment group (as indicated by the insert). […]\nSubcutaneous tumors on the left flank were initiated by injection of 10^6 viable cells in a volume of 0.1 ml. […] The dose per mouse was adjusted on the basis of its weight, determined at the time of treatment. […] Animal weight and tumor volume was measured five times weekly until the tumor volume reached 2000 mm^3, at which time animals were sacrificed for humane reasons."}, "[5]": {"system": "C-26, a murine colon tumor line", "assay": "Cytostatic activity in vitro, C-26", "format": "cell-based", "source_text": "as §1"}, "[6]": {"system": "9L rate gliosarcoma", "assay": "Cytostatic activity in vitro, 9L", "format": "cell-based, rat", "details": "0.1% DMSO vs drug dissolved directly in serum-containing growth medium", "source_text": "as §1"}, "[7]": {"system": "advanced and refractory ovarian cancer", "details": "phase II, heavily-pretreated patients; cited from earlier work"}, "[8]": {"system": "Colon-26 (C-26), a murine colon tumor model", "assay": "Antitumor activity in four doses, s.c. Colon-26", "format": "in vivo, BALB/c mice", "details": "4 i.v. doses", "experimental": "Subcutaneous Colon-26 tumors were initiated. When the tumor was measurable (day 7), intravenous treatment was initiated and was repeated on days 8, 12, and 13 (as indicated by the filled circles along the abscissa). Untreated controls received injections of saline or Diluent 12 (diluted 1:3) without taxol (panel A). Treatment with liposome-based taxol formulations consisted of 20, 30, or 40 mg/kg doses of the following: taxol, and, PG, and PC multilamellar vesicles (\"MLV\") (B), taxol, PG, and PC SUV (C), or taxol, PEG-DPPE, and PC SUV (D). Alternatively, free taxol in Diluent 12 (diluted 1:3 with saline), was administered at doses of 10, 20, or 30 mg/kg (E). […] For humane reasons, animals were sacrificed when tumor volume exceeded 2000mm^3.\nas §3\nSubcutaneous tumors on the left flank were initiated by injection of 10^6 viable cells in a volume of 0.1 ml. […] The dose per mouse was adjusted on the basis of its weight, determined at the time of treatment. […] Animal weight and tumor volume was measured five times weekly until the tumor volume reached 2000 mm^3, at which time animals were sacrificed for humane reasons. […]"}, "[9]": {"system": "A90 human ovarian tumor", "assay": "Cytostatic activity in vitro, A90", "format": "cell-based", "details": "0.1% DMSO vs drug dissolved directly in serum-containing growth medium", "source_text": "as §1"}, "[10]": {"system": "A121a, a human ovarian tumor line", "assay": "Cytostatic activity in vitro, A121a", "format": "cell-based", "details": "72 hr", "source_text": "as §1"}, "[11]": {"system": "healthy BALB/c female mice", "assay": "Maximum Tolerated Dose / toxicity in healthy mice", "format": "in vivo", "details": "i.v., single dose", "method": "(§2) The Maximum Tolerated Dose (\"MTD\") for taxol-liposome formulations administered via the intravenous route was determined in healthy BALB/c female mice. Survey experiments to define the MTD were performed with two animals per group. Doses were escalated in 2-fold increments, starting at 5 mg/kg. Drug effects were determined by close observation of weight changes and survival. The highest non-lethal dose of taxol causing >10% weight loss within one week of cessation of dosing was defined as the MTD. Animals showing weight loss exceeding 20% were sacrificed, as changes of this magnitude often indicate lethal toxicity (E. Mayhew, unpublished observations). After completing the survey experiments, the approximate MTD was refined further using 3 groups of 8 mice."}, "[12]": {"assay": "Maximum Tolerated Dose / toxicity in healthy mice", "format": "in vivo", "details": "mouse, in vivo, iv", "method": "as §2"}, "[13]": {"system": "tumor cell lines", "assay": "Cytostatic activity in vitro, variety of tumor cell lines", "format": "cell-based", "details": "across tumor cell lines", "source_text": "as §1"}, "[14]": {"details": "free taxol 20 mg/kg (cumulative 180 mg/kg)"}}, "note": "Where two headings read alike, the source gives them in different places.", "data": [{"smiles": "CC(=O)O[C@H]1C(=O)[C@@]2(C)[C@H]([C@H](OC(=O)c3ccccc3)[C@]3(O)C[C@H](OC(=O)[C@H](O)[C@@H](NC(=O)c4ccccc4)c4ccccc4)C(C)=C1C3(C)C)[C@]1(OC(C)=O)CO[C@@H]1C[C@@H]2O", "note": "[taxol]", "values": [{"measurement": "overall response rate", "setting": "[1]", "value": 56, "unit": "%"}, {"measurement": "sensitivity to taxol relative to C-26", "setting": "[2]", "value": "at least 10 fold"}, {"measurement": "effect on tumor progression", "setting": "[3]; 9 doses, any dose (10, 20, 30 mg/kg per injection)", "value": "gave no delay in tumor progression at any dose"}, {"measurement": "tumor growth delay, statistical significance (BMDP 1L)", "setting": "[3]; 9 doses, time to reach 1500 mm^3", "value": "No dose of free taxol, up to and including lethal concentrations, had a significant effect on tumor progression"}, {"measurement": "effect on tumor progression", "setting": "[3]; [14]", "value": "no effect was observed on tumor progression"}, {"measurement": "survival", "setting": "[3]; [14]", "value": "most animals survived"}, {"measurement": "tolerability of individual injections", "setting": "[3]; free taxol 30 mg/kg", "value": "tolerated as individual injections"}, {"measurement": "lethality", "setting": "[3]; free taxol 30 mg/kg per injection", "value": "cumulatively lethal to all animals by day 21"}, {"measurement": "effect on tumor growth", "setting": "[4]; single i.v. dose on day 8, free taxol 15, 25, 30 mg/kg, liposomes 25, 35, 45 mg/kg, vs controls", "value": "showed no effect on tumor growth"}, {"measurement": "tumor growth delay, statistical significance (BMDP 1L)", "setting": "[4]; single i.v. dose, time to reach 1500 mm^3", "value": "no significant delay in tumor growth compared to vehicle or buffer controls (p.0.05)"}, {"measurement": "effect of DMSO on cytostatic activity", "setting": "[5]; C-26", "value": "not affected by DMSO"}, {"measurement": "IC50", "setting": "[5]; Mus musculus, C-26, 72 hr", "value": "90 ± 10", "unit": "µM"}, {"measurement": "enhancement of free taxol activity by DMSO", "setting": "[6]", "value": "approximately 8 fold"}, {"measurement": "response rate", "setting": "[7]", "value": 30, "unit": "%"}, {"measurement": "effect on tumor growth", "setting": "[8]; days 7, 8, 12, 13, free taxol 10, 20, 30, liposomes 20, 30, 40 mg/kg per injection", "value": "showed no effect on tumor progression"}, {"measurement": "tumor growth delay, statistical significance (BMDP 1L)", "setting": "[8]; vs buffer or vehicle controls", "value": "no significant delay in tumor growth at the dose levels tested, compared to buffer or vehicle controls (p>0.05)"}, {"measurement": "enhancement of free taxol activity by DMSO", "setting": "[9]", "value": "approximately 8 fold"}, {"measurement": "IC50", "setting": "[10]", "value": "1.5 ± 0.7", "unit": "µM"}, {"measurement": "MTD, single dose", "setting": "[11]", "value": 30, "unit": "mg/kg"}, {"measurement": "MTD", "setting": "[12]; owing to the toxicity of Diluent 12, read-out: dose of free taxol that could be given as a single injection", "value": "< 35", "unit": "mg/kg"}, {"measurement": "MTD", "setting": "[12]; single dose, read-out: MTD, single dose", "value": "~30", "unit": "mg/kg"}, {"measurement": "variation of sensitivity to free taxol", "setting": "[13]", "value": "~100", "unit": "fold"}]}]}
